{"source": "paper PMC11396667", "about": "“Design, Synthesis, and Anticancer and Antibacterial Activities of Quinoline-5-Sulfonamides” (Molecules, 2024)", "key": {"[1]": {"system": "C-32, A549, MDA-MB-231 and HFF-1 cells", "experiment": "Crystal violet, WST-1 and LDH assays of 3c", "assay_type": "cell-based", "conditions": "3c in medium above 0.3 µM, 72 h; particularly in A549 and MDA-MB-231 cells", "description": "The effect of the compound on cell viability was determined using, in addition to the WST-1 assay, the crystal violet assay and the LDH (lactate dehydrogenase) assay. Furthermore, a wound healing test (indicator of cell proliferation and migration capacity) and assessment of gene expression (in the transcription phase) of BCL-2, BAX, TP53, P21, and H3 were performed.\nAn increase in the number of dead cells is shown by the absorbance line in the LDH test.\nCells were seeded in 96-well plates at 5000/well in 100 μL of medium. After 24 h of incubation, the medium was replaced with a new one with the addition of the test substance. […]\nCrystal violet test: The crystal violet (Sigma-Aldrich, Darmstadt, Germany) test determines the relative number of cells based on the amount of dye bound to the DNA of cells in the culture. The absorbance measurement was performed at a wavelength of λ = 540 nm (reference wavelength λ = 690 nm).\nWST-1 test: The WST-1 test (Roche Diagnostics, Mannheim, Germany) allows one to determine the relative number of cells in cultures. Absorbance is directly proportional to the number of cells and their metabolic activity. The absorbance measurement is performed at λ = 450 nm (reference wave 600 nm). […]"}, "[2]": {"system": "C-32, A549, MDA-MB-231 and HFF-1 cells", "experiment": "Wound healing assay", "assay_type": "cell-based, human", "conditions": "3 µM, 72 h after scratching, all cells", "description": "Photographs of the cell culture (control and culture exposed to compound 3c at a concentration of 3 µM) were taken after scraping the bottom of the vessel with a pipette tip and then after 72 h of incubation (Figure 2). […] In control cultures, the cell-free surface of the vessel (scraped with a pipette tip) becomes overgrown with cells, while in cultures supplemented with medium containing 3 µM of compound 3c, empty spots are visible. In the case of A549 and MDA-MB-231 cells, entire cell-free regions are clearly visible.\nThe wound healing assay is a standard in vitro technique for examining collective cell migration in two dimensions. The test involves scratching the bottom of a vessel (wells of a culture plate) with a pipette tip and observing over time how quickly cells move to occupy a free surface under specific culture conditions. In the presented work, the observation was carried out after 72 h of culture. At t = 0, a scratch was made, the medium was replaced with fresh one with the addition of the test compound, and then the cultures were incubated for 72 h. The observation was carried out using an OLYMPUS IX 50 microscope (Tokyo, Japan) with a KERN camera (KERN & SOHN GmbH, Balingen, Germany), and an image analysis system with KERN software (BalanceConnection SCD-4.0 Pro) was used to analyze the observed changes."}, "[3]": {"system": "H3, BCL-2, BAX, P21, and P53 genes in C-32, A549, MDA-MB-231, and HFF-1 cells", "experiment": "Transcriptional activity by RT-QPCR", "assay_type": "cell-based, human", "conditions": "36 µM in medium, 24 h", "description": "The study investigated the effect of compound 3c on the transcriptional activity of genes encoding a proliferation marker (histone H3), cell cycle regulators (P53 and P21), and genes encoding proteins involved in the mitochondrial apoptosis pathway (BCL-2 and BAX) in C-32, A549, MDA-MB-231, and HFF-1 cells. Cultures were exposed to 3c at a concentration of 36 µM in medium for 24 h.\nThe transcriptional activity of the following genes was assessed: H3 (a gene encoding histone H3, a proliferation marker), BCL-2 and BAX (genes encoding BCL-2 and BAX proteins, respectively; both are mitochondrial proteins associated with apoptosis), and P21 and P53 (cell cycle regulators). Activity was assessed by RT-QPCR using the CFX96 Touch Real-Time PCR Detection System (BIO-RAD Hercules, CA, USA) and a SensiFAST^TM SYBR^R No-ROX One-Step Kit (Meridian Bioscience, Memphis, TN, USA). Cultured cells were exposed (for 24 h) to the tested compounds (0.5 µg/mL). RNA was extracted using Quick-RNA™ MiniPrep kit columns (Zymo Research, Irvine, CA, USA). The extracted RNA was assessed qualitatively and quantitatively. The integrity of total RNA was checked by electrophoresis (1.2% agarose gel, EtBr), and the amount and purity of total RNA in the extracts was determined spectrophotometrically (HP8452A apparatus, Hewlett Packard, Waldbronn, Germany)."}}}
{"smiles": "C#CCN(C)S(=O)(=O)c1ccc(O)c2ncccc12", "note": "[3c, 8-Hydroxy-N-methyl-N-(prop-2-yn-1-yl)quinoline-5-sulfonamide]", "values": [{"measurement": "cell number in cultures (cell viability and cytotoxicity assays)", "setting": "[1]", "result": "significant decrease in cell number"}, {"measurement": "proliferative activity and migration capacity (wound healing)", "setting": "[2]", "result": "reduction in proliferative activity and migration capacity"}, {"measurement": "BCL-2/BAX ratio (ratio of gene copy numbers)", "setting": "[3]", "result": "in favor of BAX"}, {"measurement": "transcriptional activity of P21", "setting": "[3]", "result": "increase in the transcriptional activity"}, {"measurement": "transcriptional activity of P53", "setting": "[3]", "result": "increase in the transcriptional activity"}, {"measurement": "H3 expression (proliferation marker)", "setting": "[3]; all the cultures", "result": "reduction in H3 expression"}]}
